In ChEMBL document CHEMBL4177677, “Relevance of Half-Life in Drug Design” (J Med Chem, 2018):

How the values were obtained:
[1] = Half life in human; assay type: ADME, organism-based; conditions: in vivo
[2] = Drug excretion in human kidney; conditions: urine
[3] = Terminal half life in human at 0.1 mg/kg, iv; assay type: ADME, organism-based; conditions: in vivo, read-out: beta t1/2 (converted)
Homo sapiens [4] = species on record: Homo sapiens; experiment: Unbound concentration in human at 10 mg, tid; conditions: in vivo
[5] = Inhibition of human calcium channel
[6] = Half life in human at 10 mg, tid; conditions: in vivo
[7] = Terminal half life in human; assay type: ADME, organism-based; conditions: in vivo, read-out: beta t1/2
Homo sapiens [8] = species on record: Homo sapiens; experiment: Unbound concentration in human at 5 to 10 mg, qd; assay type: ADME, organism-based; conditions: in vivo

## C[C@@H]1CCN(C(=O)CC#N)C[C@@H]1N(C)c1ncnc2[nH]ccc12 [TOFACITINIB]
[1]
  half-life: 3 h

## NCCCC(O)(P(=O)(O)O)P(=O)(O)O [ALENDRONIC ACID]
[2]
  dose excreted: 20 to 80%

## NS(=O)(=O)N1CCN(C2CN(CC[C@]3(c4ccc(Cl)c(Cl)c4)CCC(=O)N(CC4CC4)C3)C2)CC1
[3]
  half-life: 28 h

## COc1cc(F)c(C(C)C)cc1-c1ccc(C(F)(F)F)cc1CN1C(=O)O[C@H](c2cc(C(F)(F)F)cc(C(F)(F)F)c2)[C@@H]1C [ANACETRAPIB]
[1]
  half-life: 60 h

## COC(=O)C1=C(C)NC(C)=C(C(=O)OC)C1c1ccccc1[N+](=O)[O-] [NIFEDIPINE]
Homo sapiens [4]
  Drug uptake(free): 6 nM
[5]
  IC50: 4 nM
[6]
  half-life: 2 h

## CC(C(=O)O)c1ccc2oc(-c3ccc(Cl)cc3)nc2c1 (stereo not given) [BENOXAPROFEN]
[7]
  half-life: 19 to 26 h

## CCOC(=O)C1=C(COCCN)NC(C)=C(C(=O)OC)C1c1ccccc1Cl (stereo not given) [AMLODIPINE]
[5]
  IC50: 2 nM
Homo sapiens [8]
  Drug uptake(free): 2 nM
